Assay results from patent US20090170867A1, “TRPV1 ANTAGONISTS INCLUDING SULFONAMIDE SUBSTITUENT AND USES THEREOF” (Shionogi & Co., Ltd., priority 2007, published 2009).
Values after ≈ are worked out from the molar mass of the structure shown. Where two headings read alike, the source gives them in different places.

How the values were obtained:
Aqueous solubility = assay type: physicochemical; conditions: aqueous solution
human TRPV1 [1] = biological target: T1, human TRPV1 (Homo sapiens, UniProt Q8NER1); test: Capsaicin-based assay, Protocol 2 (TRPV1/CHO cells, Fluo-4, FLIPR); assay type: cell-based; conditions: capsaicin 100 nM final, mean ± SEM, number of trials in parentheses, read-out: TRPV1 IC50 Potency, Human Capsaicin CHO (hCAP-CHO)
T1 construct: using primers designed surrounding the complete hTRPV1 open reading frame; expressed in transfected cells; host or cells: CHO-K1 cells stably transfected with pcDNA3.1(-)-hVR1 plasmid
Summary of the method: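 CHO cells stably transfected with human TRPV1 cDNA, kept under G418 selection, loaded with 3 μM Fluo-4 for 1 h. Calcium fluorescence followed on FLIPR after a 15 s baseline against capsaicin challenge; compounds at final 100 μM to 1.5625 μM, curves fitted over the full time course.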

human TRPV1 [2] = biological target: T1, human TRPV1; test: pH-based assay, Protocol 2 (TRPV1/CHO cells, Fura-2 AM, FDSS-3000, pH 5.0-5.1); assay type: cell-based; conditions: H2SO4 agonist, mean ± SEM, number of trials in parentheses, read-out: TRPV1 IC50 Potency, Human pH CHO (hpH-CHO)
Text: For Protocol 2, a Chinese Hamster Ovary cell line (CHO) that has been engineered to constitutively express human recombinant TRPV1 was used (TRPV1/CHO cells). The TRPV1/CHO cell line was generated as described below.
The resulting PCR products were purified from agarose gels using Gel Band Purification Kit (GE Healthcare Bioscience) and were subcloned into pCR-Blunt vector (Invitrogen). The cloned cDNA was fully sequenced using a fluorescent dye-terminator reagent (BigDye Terminator ver3.1 Cycle Sequencing Kit, Applied Biosystems) and ABI Prism 3100 genetic analyzer (Applied Biosystems). The pCR-Blunt vector containing the hTRPV1 cDNA was subjected to restriction digestion with EcoRI. The restriction fragment was subcloned into expression vector pcDNA3.1 (−) (Invitrogen) and named pcDNA3.1 (−)-hVR1 plasmid. The sequence of the cDNA encoding TRPV1 is available at GenBank accession number AJ277028.
CHO-K1 cells were maintained in growth medium consisting of α-MEM, 10% FBS (Hyclone), and 100 IU/mL of penicillin-100 μg/mL of streptomycin mixed solution (Nacalai Tesque, Japan) at 37° C. in an environment of humidified 95% air and 5% CO2. The cells were transfected with the pcDNA3.1 (−)-hVR1 plasmid using FuGENE6 (Roche) according to the manufacturer's protocol. 24 hr after transfection, neomycin-resistant cells were selected using 1 mg/mL G418 (Nacalai Tesque). After 2 weeks, individual colonies were picked, expanded, and screened for the expression of hTRPV1 in the capsaicin-induced Ca^2+ influx assay (see below) with a FLIPR (Molecular Devices). A clone with the largest Ca^2+ response to capsaicin was selected and re-cloned by the same procedure. The cells expressing hTRPV1 were cultured in the growth medium supplemented with 1 mg/mL G418.
TRPV1/CHO cells were seeded in the 96-well clear-bottom black-wall plate (Nunc) at densities of 1-2×10^4 cells/well and grown in 100 μL of culture medium (alpha-MEM supplemented with 10% FBS, 20 mM HEPES, 1 mg/mL geneticin and 1% antibiotic-antimycotic mixed stock solution) for 1-2 days before the experiment.
Different agonist solutions with sulfuric acid concentrations of from 15 mM to 18 mM (see FIG. 1) were prepared by diluting 1M sulfuric acid with measuring buffer. The different sulfuric acid concentrations in the agonist solutions were selected such that a 1:4 dilution would result in a final sulfuric acid concentration of between 3.0 mM to 3.6 mM, respectively, as indicated in FIG. 1.
The cells were stimulated using 3.0 mM (well number B1-6), 3.1 mM (C1-6), 3.2 mM (D1-6), 3.3 mM (E1-6), 3.4 mM (F1-6), 3.5 mM (G1-6), or 3.6 mM (H1-6) H2SO4 or pH 7.2 measuring buffer without H2SO4 (A1-6) (FIG. 2).
(1) Culture medium was removed using an 8-channel-pipette (Rainin, USA) from the 96-well plate and the wells were refilled with 100 μL of loading buffer (20 mM HEPES, 115 mM NaCl, 5.4 mM KCl, 0.8 mM MgCl2, 1.8 mM CaCl2, 13.8 mM D-glucose, 2.5 mM probenecid, pH 7.4) containing 5 μM Fura-2 AM (Dojin, Japan).
(2) The 96-well plate was incubated at 37° C. for 45 min.
(3) The loading buffer was removed from each well. The cells were subsequently washed twice with 150 μL of measuring buffer (20 mM HEPES, 115 mM NaCl, 5.4 mM KCl, 0.8 mM MgCl2, 5.0 mM CaCl2, 13.8 mM D-glucose, 0.1% BSA, pH 7.4) (no probenecid). The wells were then refilled with 80 μL of measuring buffer.
(4) After an incubation at 4° C. for 15 min, the 96-well plate was transferred to FDSS-3000 (Hamamatsu Photonics, Japan).
(5) The Fura-2 fluorescent intensity was monitored at a wavelength of 340 nm and at 380 nm, respectively, at a rate of 0.5 Hz for a total of 240 seconds.

[3] = pH 1.2, simulated gastric fluid, read-out: aqueous solubility at pH 1.2
[4] = pH 6.8, aqueous buffer, read-out: aqueous solubility at pH 6.8

T1 sequence (Q8NER1 whole entry): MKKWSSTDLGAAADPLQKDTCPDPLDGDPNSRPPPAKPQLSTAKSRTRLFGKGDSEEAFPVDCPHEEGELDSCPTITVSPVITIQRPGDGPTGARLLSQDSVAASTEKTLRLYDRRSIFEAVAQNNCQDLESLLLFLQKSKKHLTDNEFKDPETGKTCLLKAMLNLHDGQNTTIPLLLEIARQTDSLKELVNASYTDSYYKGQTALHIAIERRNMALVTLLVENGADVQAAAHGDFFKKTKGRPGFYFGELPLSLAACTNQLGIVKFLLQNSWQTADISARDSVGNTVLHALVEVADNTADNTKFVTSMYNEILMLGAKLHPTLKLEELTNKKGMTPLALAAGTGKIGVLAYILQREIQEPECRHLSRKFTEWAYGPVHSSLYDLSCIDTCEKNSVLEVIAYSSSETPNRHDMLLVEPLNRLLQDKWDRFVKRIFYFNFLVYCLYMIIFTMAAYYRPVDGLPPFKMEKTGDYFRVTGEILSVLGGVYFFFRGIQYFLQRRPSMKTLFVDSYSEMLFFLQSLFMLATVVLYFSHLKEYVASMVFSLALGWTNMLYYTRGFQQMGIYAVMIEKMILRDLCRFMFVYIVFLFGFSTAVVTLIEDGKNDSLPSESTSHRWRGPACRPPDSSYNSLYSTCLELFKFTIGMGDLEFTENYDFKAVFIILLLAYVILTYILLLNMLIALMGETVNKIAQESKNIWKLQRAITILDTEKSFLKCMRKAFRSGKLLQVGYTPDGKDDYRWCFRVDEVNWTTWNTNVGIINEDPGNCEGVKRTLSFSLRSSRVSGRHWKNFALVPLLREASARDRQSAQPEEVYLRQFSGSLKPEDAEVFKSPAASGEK

| Compound | solubility (Aqueous solubility; [3]) | solubility (Aqueous solubility; [4]) | IC50 (human TRPV1 [1]) | IC50 (human TRPV1 [2]) |
| --- | --- | --- | --- | --- |
| O=C(Nc1ccc(C(F)(F)F)cc1)N1CC=C(c2ncccc2Cl)CC1 [Compound 200] | < 0.1 µM | < 0.1 µM | – | – |
| O=C(Nc1ccc(OC(F)(F)F)cc1)N1CC=C(c2ncc([C@H](O)CO)cc2Cl)CC1 [Compound E2] | > 50 µM | > 50 µM | 107 ± 18.8 nM | 20.3 ± 1.7 nM |
| N#CCc1cnc(C2=CCN(C(=O)Nc3ccc(C(F)(F)F)cc3)CC2)c(Cl)c1 [Compound E6, 4-(3-chloro-5-(cyanomethyl)pyridin-2-yl)-N-(4-(trifluoromethyl)phenyl)-5,6-dihydropyridine-1(2H)-carboxamide] | 27.2 µM (≈ 11.4 µg/mL) | 9 µM (≈ 3.79 µg/mL) | 265 nM | – |
| CCOC(=O)c1cnc(C2=CCN(C(=O)Nc3ccc(C(F)(F)F)cc3)CC2)c(Cl)c1 [Compound F2] | 1 µM (≈ 0.454 µg/mL) | 3 µM (≈ 1.36 µg/mL) | 108 ± 24.3 nM | 62.9 ± 8.8 nM |
| COC(=O)Cc1cnc(C2=CCN(C(=O)Nc3ccc(C(F)(F)F)cc3)CC2)c(Cl)c1 [Compound F6] | > 50 µM | 9.2 µM (≈ 4.18 µg/mL) | 864 nM | 467 nM |
| CC(O)c1cnc(C2=CCN(C(=O)Nc3ccc(C(F)(F)F)cc3)CC2)c(Cl)c1 (centres unmarked) [Compound G2] | > 50 µM | 38.2 µM (≈ 16.3 µg/mL) | 112 ± 22.3 nM | 84.8 ± 8.8 nM |
| O=C(O)Cc1cnc(C2=CCN(C(=O)Nc3ccc(C(F)(F)F)cc3)CC2)c(Cl)c1 [Compound G6] | > 50 µM | > 50 µM | > 25000 nM | – |
| CN(C)Cc1cnc(C2=CCN(C(=O)Nc3ccc(C(F)(F)F)cc3)CC2)c(Cl)c1 [Compound H6] | > 50 µM | > 50 µM | 924 nM | – |
| O=C(Nc1ccc(C(F)(F)F)cc1)N1CC=C(c2ncc(CO)cc2Cl)CC1 [Compound J2] | > 50 µM | > 50 µM | 129 ± 26 nM | 41.7 ± 4.4 nM |
| O=C(Nc1ccc(C(F)(F)F)cc1)N1CCC(F)(c2ncc([C@H](O)CO)cc2Cl)CC1 [Compound N1, (S)-4-(3-chloro-5-(1,2-dihydroxyethyl)pyridin-2-yl)-4-fluoro-N-(4-(trifluoromethyl)phenyl)piperidine-1-carboxamide] | > 50 µM | 28 µM (≈ 12.9 µg/mL) | 38.7 ± 5.3 nM | 6.3 ± 0.8 nM |
| O=C(Nc1ccc(C(F)(F)F)cc1)N1CCC(F)(c2ncc([C@H](O)CO)cc2F)CC1 [Compound N6] | > 50 µM | > 50 µM | – | – |
| O=C(Nc1ccc(C(F)(F)F)c(F)c1)N1CC=C(c2ncc([C@H](O)CO)cc2Cl)CC1 [Compound S1, (S)-3-Chloro-5-(1,2-dihydroxy-ethyl)-3′,6′-dihydro-2′H-[2,4′]bipyridinyl-1′-carboxylic acid (3-fluoro-4-trifluoromethyl-phenyl)amide] | > 50 µM | > 50 µM | 53.5 ± 16.3 nM | 16.3 ± 2 nM |
| O=C(Nc1nc2ccc(Cl)cc2s1)N1CC=C(c2ncc(CO)cc2Cl)CC1 [Compound V2] | – | – | 234 ± 44.6 nM | 83.2 ± 7.6 nM |
| O=C(Nc1nc2ccc(F)cc2s1)N1CC=C(c2ncc(CO)cc2Cl)CC1 [Compound W2] | – | – | 245 ± 34.4 nM | 241 ± 34.9 nM |
| O=C(Nc1ccc(C(F)(F)F)c(F)c1)N1CC=C(c2ncc([C@@H](O)CO)cc2Cl)CC1 [Compound W5] | – | – | 423 ± 123 nM | 71.2 ± 10.5 nM |
| CN(C)c1ccc(NC(=O)N2CC=C(c3ncc(CO)cc3Cl)CC2)cc1C(F)(F)F [Compound X1] | – | – | 74.4 ± 11.5 nM | 18.8 ± 1.6 nM |
| CC(C)(O)c1cnc(C2=CCN(C(=O)Nc3ccc(C(F)(F)F)cc3)CC2)c(Cl)c1 [Compound X2] | – | – | 248 ± 25.1 nM | 81.1 ± 10.5 nM |
| O=C(Nc1ccc(OCC2CC2)c(C(F)(F)F)c1)N1CC=C(c2ncc(CO)cc2Cl)CC1 [Compound Y2] | – | – | 351 ± 69.8 nM | 59.9 ± 11.8 nM |
| O=C(Nc1ccc(C(F)(F)F)cn1)N1CCC(F)(c2ncc([C@@H](O)CO)cc2F)CC1 [Compound Y5] | – | – | 196 ± 37.7 nM | 108 ± 7.7 nM |
| O=C(Nc1ccc(C(F)(F)F)cn1)N1CC=C(c2ncc(CO)cc2Cl)CC1 [Compound Z2] | – | – | 401 ± 122 nM | 248 ± 45.3 nM |

Further compounds by falling IC50 (human TRPV1 [1]), results first:

| solubility (Aqueous solubility; [3]) | solubility (Aqueous solubility; [4]) | IC50 (human TRPV1 [1]) | IC50 (human TRPV1 [2]) | Compound |
| --- | --- | --- | --- | --- |
| – | – | 68.9 ± 18.4 nM | 9.3 ± 1.9 nM | O=C(Nc1nc2ccc(Cl)cc2s1)N1CC=C(c2ncc([C@H](O)CO)cc2Cl)CC1 [Compound W1] |
| – | – | 66.3 ± 5.7 nM | 22.4 ± 1.1 nM | O=C(Nc1ccc(OC(F)(F)F)cc1)N1CC=C(c2ncc([C@H](O)CO)cc2F)CC1 [Compound V1] |
| – | – | 62.8 ± 11.4 nM | 16.5 ± 3.3 nM | O=C(Nc1nc2ccc(Cl)cc2s1)N1CCC(F)(c2ncc([C@H](O)CO)cc2Cl)CC1 [Compound Z4] |
| – | – | 45.5 ± 2.1 nM | 10.1 ± 1.4 nM | Cc1cc(NC(=O)N2CCC(F)(c3ncc([C@@H](O)CO)cc3Cl)CC2)ccc1OC(F)(F)F [Compound V5] |
| > 50 µM | 17.4 µM (≈ 8.06 µg/mL) | 43.9 ± 10 nM | – | O=C(Nc1ccc(C(F)(F)F)c(F)c1)N1CCC(F)(c2ncc([C@H](O)CO)cc2F)CC1 [Compound Y3] |
| – | – | 35.6 ± 8.9 nM | 22.4 nM | O=C(Nc1nc2ccc(Cl)cc2s1)N1CCC(F)(c2ncc([C@H](O)CO)cc2F)CC1 [Compound W3] |
| – | – | 35.5 ± 3.9 nM | 16.4 ± 1.9 nM | O=C(Nc1nc2ccc(Cl)cc2s1)N1CCC(F)(c2ncc([C@@H](O)CO)cc2F)CC1 [Compound Z5] |
| – | – | 32.9 ± 11.8 nM | 14.9 ± 2.2 nM | O=C(Nc1ccc(Cl)c(C(F)(F)F)c1)N1CCN(c2ncc([C@H](O)CO)cc2Cl)CC1 [Compound W6, (S)—N-(4-chloro-3-(trifluoromethyl)phenyl)-4-(3-chloro-5-(1,2-dihydroxyethyl)pyridin-2-yl)piperazine-1-carboxamide] |
| > 50 µM | > 50 µM | 31.7 ± 8.9 nM | – | O=C(Nc1ccc(S(=O)(=O)C(F)(F)F)cc1)N1CCC(F)(c2ncc([C@H](O)CO)cc2Cl)CC1 [Compound H1] |
| – | – | 23.8 ± 6.8 nM | 12.9 nM | O=C(Nc1ccc(C(F)(F)F)c(Cl)c1)N1CCC(F)(c2ncc([C@@H](O)CO)cc2Cl)CC1 [Compound T3] |
| > 50 µM | 22.6 µM (≈ 10.8 µg/mL) | 18.6 ± 6.8 nM | 9 ± 2.3 nM | O=C(Nc1ccc(C(F)(F)F)c(F)c1)N1CCC(F)(c2ncc([C@H](O)CO)cc2Cl)CC1 [Compound F1] |
| – | – | 16 ± 1.6 nM | 6.2 nM | O=C(Nc1nc2ccc(F)cc2s1)N1CCN(c2ncc([C@H](O)CO)cc2Cl)CC1 [Compound V6, (S)-4-(3-chloro-5-(1,2-dihydroxyethyl)pyridin-2-yl)-N-(6-fluorobenzo[d]thiazol-2-yl)piperazine-1-carboxamide] |
| > 50 µM | 15.7 µM (≈ 7.5 µg/mL) | 15.3 ± 6.9 nM | 11.3 ± 0.8 nM | O=C(Nc1ccc(OC(F)(F)F)cc1)N1CCC(F)(c2ncc([C@H](O)CO)cc2Cl)CC1 [Compound C1] |
